Reference: article PMC6801739, “Antitumor Activity of a Novel Tyrosine Kinase Inhibitor AIU2001 Due to Abrogation of the DNA Damage Repair in Non-Small Cell Lung Cancer Cells” (International Journal of Molecular Sciences, 2019)

Assays:
FLT4 = biological target: T1, FLT4 (Homo sapiens, UniProt P35916); assay: In vitro kinase assay, IC50 (Reaction Biology Corp.); format: biochemical
T1 construct: purchased Eurofins Pharma Discovery (KinaseProfiler); IC50 values by Reaction Biology Corp

c-KIT = biological target: T2, c-KIT (Homo sapiens, UniProt P10721); assay: as above; format: biochemical
T2 construct: purchased Eurofins Pharma Discovery (KinaseProfiler); IC50 values by Reaction Biology Corp
T2 sequence (P10721 26-976): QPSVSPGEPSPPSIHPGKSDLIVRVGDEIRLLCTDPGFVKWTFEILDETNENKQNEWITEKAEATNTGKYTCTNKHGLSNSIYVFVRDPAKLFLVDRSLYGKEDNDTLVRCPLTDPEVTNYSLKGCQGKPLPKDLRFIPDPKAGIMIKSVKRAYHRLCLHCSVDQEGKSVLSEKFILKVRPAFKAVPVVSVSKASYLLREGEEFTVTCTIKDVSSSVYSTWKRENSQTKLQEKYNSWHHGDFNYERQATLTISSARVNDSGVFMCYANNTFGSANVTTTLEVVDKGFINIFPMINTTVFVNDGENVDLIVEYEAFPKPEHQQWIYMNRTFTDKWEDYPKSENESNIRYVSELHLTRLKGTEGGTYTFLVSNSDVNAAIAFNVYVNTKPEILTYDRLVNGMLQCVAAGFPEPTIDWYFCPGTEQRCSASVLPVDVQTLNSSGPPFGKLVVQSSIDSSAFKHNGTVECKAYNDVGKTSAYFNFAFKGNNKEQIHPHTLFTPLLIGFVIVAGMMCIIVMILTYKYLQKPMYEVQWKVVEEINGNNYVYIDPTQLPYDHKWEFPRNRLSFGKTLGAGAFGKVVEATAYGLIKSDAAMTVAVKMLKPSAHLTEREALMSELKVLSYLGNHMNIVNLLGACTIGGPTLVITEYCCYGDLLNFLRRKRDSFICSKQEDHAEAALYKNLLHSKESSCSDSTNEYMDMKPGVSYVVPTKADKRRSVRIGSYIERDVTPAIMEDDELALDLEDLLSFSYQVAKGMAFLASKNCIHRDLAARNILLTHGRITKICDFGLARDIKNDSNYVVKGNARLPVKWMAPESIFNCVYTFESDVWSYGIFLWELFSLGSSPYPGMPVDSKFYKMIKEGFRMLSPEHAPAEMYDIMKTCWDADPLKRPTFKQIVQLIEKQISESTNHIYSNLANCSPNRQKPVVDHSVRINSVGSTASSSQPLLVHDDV

CDK2/cyclinA = biological target: T3, CDK2/cyclinA (Homo sapiens, UniProt P24941); assay: Kinase profiling at 10 μM (Eurofins); format: biochemical; conditions: read-out: Inhibitory activity
T3 construct: purchased Eurofins Pharma Discovery (KinaseProfiler); IC50 values by Reaction Biology Corp

CHK1 = biological target: T4, CHK1 (Homo sapiens, UniProt O14757); assay: Kinase profiling at 10 μM (Eurofins); format: biochemical; conditions: read-out: Inhibitory activity
T4 construct: purchased Eurofins Pharma Discovery (KinaseProfiler); IC50 values by Reaction Biology Corp

CK2 = biological target: T5, CK2 (Homo sapiens, UniProt P68400); assay: Kinase profiling at 10 μM (Eurofins); format: biochemical; conditions: read-out: Inhibitory activity
T5 construct: purchased Eurofins Pharma Discovery (KinaseProfiler); IC50 values by Reaction Biology Corp

DDR2 = biological target: T6, DDR2 (Homo sapiens, UniProt Q16832); assay: Kinase profiling at 10 μM (Eurofins); format: biochemical; conditions: read-out: Inhibitory activity
T6 construct: purchased Eurofins Pharma Discovery (KinaseProfiler); IC50 values by Reaction Biology Corp

ERBB4 = biological target: T7, ERBB4 (Homo sapiens, UniProt Q15303); assay: Kinase profiling at 10 μM (Eurofins); format: biochemical; conditions: read-out: Inhibitory activity
T7 construct: purchased Eurofins Pharma Discovery (KinaseProfiler); IC50 values by Reaction Biology Corp

FGFR2 = biological target: T8, FGFR2 (Homo sapiens, UniProt P21802); assay: Kinase profiling at 10 μM (Eurofins); format: biochemical; conditions: read-out: Inhibitory activity
T8 construct: purchased Eurofins Pharma Discovery (KinaseProfiler); IC50 values by Reaction Biology Corp
T8 sequence (P21802 22-821): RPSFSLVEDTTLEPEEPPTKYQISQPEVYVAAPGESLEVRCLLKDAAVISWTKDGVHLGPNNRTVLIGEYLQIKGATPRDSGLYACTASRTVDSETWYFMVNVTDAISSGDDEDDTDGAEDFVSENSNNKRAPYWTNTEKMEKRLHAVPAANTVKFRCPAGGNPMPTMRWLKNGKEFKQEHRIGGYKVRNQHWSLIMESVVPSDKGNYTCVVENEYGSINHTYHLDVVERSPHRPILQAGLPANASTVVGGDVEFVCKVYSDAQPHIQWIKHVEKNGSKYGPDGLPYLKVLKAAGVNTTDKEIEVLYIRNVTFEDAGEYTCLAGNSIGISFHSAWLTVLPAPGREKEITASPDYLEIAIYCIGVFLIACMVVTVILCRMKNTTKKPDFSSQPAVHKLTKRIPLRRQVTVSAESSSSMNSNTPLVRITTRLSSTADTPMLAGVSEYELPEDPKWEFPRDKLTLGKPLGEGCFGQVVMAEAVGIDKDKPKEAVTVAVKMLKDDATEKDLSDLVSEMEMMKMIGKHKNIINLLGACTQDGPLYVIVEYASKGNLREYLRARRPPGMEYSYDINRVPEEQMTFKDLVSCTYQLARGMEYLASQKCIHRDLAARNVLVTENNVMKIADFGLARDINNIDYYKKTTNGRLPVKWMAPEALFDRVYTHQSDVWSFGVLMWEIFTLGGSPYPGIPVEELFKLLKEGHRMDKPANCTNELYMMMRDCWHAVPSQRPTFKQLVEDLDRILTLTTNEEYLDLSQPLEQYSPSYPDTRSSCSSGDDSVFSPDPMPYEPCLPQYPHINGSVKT

FLT1 = biological target: T9, FLT1 (Homo sapiens, UniProt P17948); assay: Kinase profiling at 10 μM (Eurofins); format: biochemical; conditions: read-out: Inhibitory activity
T9 construct: purchased Eurofins Pharma Discovery (KinaseProfiler); IC50 values by Reaction Biology Corp
T9 sequence (P17948 27-1338): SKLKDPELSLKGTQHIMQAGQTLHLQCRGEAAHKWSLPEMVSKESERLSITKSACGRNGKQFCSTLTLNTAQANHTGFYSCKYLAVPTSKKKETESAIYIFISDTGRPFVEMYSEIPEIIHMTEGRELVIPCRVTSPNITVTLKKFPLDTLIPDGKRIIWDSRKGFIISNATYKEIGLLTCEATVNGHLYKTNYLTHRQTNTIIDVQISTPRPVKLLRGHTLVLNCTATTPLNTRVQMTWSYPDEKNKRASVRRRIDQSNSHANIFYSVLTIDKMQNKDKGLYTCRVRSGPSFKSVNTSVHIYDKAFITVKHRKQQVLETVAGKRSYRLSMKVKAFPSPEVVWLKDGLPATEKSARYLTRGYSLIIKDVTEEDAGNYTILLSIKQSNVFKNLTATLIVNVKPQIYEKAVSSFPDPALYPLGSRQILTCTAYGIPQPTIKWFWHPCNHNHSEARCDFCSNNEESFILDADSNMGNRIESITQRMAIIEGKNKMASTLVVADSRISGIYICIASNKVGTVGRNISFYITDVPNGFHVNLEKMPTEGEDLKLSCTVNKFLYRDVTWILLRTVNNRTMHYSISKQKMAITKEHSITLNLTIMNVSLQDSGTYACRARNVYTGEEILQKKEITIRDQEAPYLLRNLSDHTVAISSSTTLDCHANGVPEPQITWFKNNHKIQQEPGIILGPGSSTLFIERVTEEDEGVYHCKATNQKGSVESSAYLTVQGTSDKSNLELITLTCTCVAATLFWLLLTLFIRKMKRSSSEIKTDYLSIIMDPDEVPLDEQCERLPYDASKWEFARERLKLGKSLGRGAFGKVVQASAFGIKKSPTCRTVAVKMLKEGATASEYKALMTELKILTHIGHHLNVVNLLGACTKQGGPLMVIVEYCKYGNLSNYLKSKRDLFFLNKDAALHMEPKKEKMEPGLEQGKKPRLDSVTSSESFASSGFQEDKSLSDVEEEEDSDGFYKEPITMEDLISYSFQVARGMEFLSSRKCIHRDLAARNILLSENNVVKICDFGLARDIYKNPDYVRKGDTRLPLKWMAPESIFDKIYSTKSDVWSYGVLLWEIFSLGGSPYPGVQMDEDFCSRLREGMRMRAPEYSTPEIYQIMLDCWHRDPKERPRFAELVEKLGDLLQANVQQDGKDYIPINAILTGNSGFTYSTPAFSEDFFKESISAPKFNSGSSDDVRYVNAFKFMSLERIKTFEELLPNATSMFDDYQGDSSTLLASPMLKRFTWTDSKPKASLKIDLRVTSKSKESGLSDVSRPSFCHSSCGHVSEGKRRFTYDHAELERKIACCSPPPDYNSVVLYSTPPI

FLT3 = biological target: T10, FLT3 (Homo sapiens, UniProt P36888); assay: Kinase profiling at 10 μM (Eurofins); format: biochemical; conditions: read-out: Inhibitory activity
T10 construct: purchased Eurofins Pharma Discovery (KinaseProfiler); IC50 values by Reaction Biology Corp

HIPK2 = biological target: T11, HIPK2 (Homo sapiens, UniProt Q9H2X6); assay: Kinase profiling at 10 μM (Eurofins); format: biochemical; conditions: read-out: Inhibitory activity
T11 construct: purchased Eurofins Pharma Discovery (KinaseProfiler); IC50 values by Reaction Biology Corp

IKKα = biological target: T12, IKKα (Homo sapiens, UniProt O15111); assay: Kinase profiling at 10 μM (Eurofins); format: biochemical; conditions: read-out: Inhibitory activity
T12 construct: purchased Eurofins Pharma Discovery (KinaseProfiler); IC50 values by Reaction Biology Corp
T12 sequence (O15111 whole entry): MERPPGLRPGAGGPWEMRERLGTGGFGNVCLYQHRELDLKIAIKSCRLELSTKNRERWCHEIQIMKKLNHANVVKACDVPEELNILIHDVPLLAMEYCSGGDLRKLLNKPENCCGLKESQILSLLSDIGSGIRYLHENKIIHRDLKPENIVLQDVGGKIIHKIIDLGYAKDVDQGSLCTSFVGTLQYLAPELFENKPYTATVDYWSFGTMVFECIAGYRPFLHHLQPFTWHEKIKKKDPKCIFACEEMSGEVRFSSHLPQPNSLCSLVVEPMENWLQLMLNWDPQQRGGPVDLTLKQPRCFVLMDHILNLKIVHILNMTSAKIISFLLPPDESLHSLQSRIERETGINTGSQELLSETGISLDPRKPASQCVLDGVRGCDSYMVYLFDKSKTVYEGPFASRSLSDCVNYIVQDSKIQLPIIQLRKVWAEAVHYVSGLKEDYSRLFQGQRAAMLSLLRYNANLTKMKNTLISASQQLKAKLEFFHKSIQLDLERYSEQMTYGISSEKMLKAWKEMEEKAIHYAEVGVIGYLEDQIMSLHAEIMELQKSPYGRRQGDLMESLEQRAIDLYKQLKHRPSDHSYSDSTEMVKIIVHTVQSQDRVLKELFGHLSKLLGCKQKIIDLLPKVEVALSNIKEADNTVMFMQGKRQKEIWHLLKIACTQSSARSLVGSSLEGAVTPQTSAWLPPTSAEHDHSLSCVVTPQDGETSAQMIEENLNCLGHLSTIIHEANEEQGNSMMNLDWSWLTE

MAPK2 = biological target: T13, MAPK2 (Homo sapiens, UniProt P28482); assay: Kinase profiling at 10 μM (Eurofins); format: biochemical; conditions: read-out: Inhibitory activity
T13 construct: purchased Eurofins Pharma Discovery (KinaseProfiler); IC50 values by Reaction Biology Corp
T13 sequence (P28482 whole entry): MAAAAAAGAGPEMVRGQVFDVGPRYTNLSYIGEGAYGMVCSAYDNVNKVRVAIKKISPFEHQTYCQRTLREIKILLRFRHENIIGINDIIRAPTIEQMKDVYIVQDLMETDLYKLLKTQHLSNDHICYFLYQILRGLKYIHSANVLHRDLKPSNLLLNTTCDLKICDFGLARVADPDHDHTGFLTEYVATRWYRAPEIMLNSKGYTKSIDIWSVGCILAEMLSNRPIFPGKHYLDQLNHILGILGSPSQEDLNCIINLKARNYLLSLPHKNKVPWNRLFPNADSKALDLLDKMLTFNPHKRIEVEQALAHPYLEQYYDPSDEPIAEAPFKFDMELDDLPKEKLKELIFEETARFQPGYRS

MEK1 = biological target: T14, MEK1 (Homo sapiens, UniProt Q02750); assay: Kinase profiling at 10 μM (Eurofins); format: biochemical; conditions: read-out: Inhibitory activity
T14 construct: purchased Eurofins Pharma Discovery (KinaseProfiler); IC50 values by Reaction Biology Corp

p70S6K = biological target: T15, p70S6K (Homo sapiens, UniProt P23443); assay: Kinase profiling at 10 μM (Eurofins); format: biochemical; conditions: read-out: Inhibitory activity
T15 construct: purchased Eurofins Pharma Discovery (KinaseProfiler); IC50 values by Reaction Biology Corp

ROCK-I = biological target: T16, ROCK-I (Homo sapiens, UniProt Q13464); assay: Kinase profiling at 10 μM (Eurofins); format: biochemical; conditions: read-out: Inhibitory activity
T16 construct: purchased Eurofins Pharma Discovery (KinaseProfiler); IC50 values by Reaction Biology Corp

ROS = biological target: T17, ROS (Homo sapiens, UniProt P08922); assay: Kinase profiling at 10 μM (Eurofins); format: biochemical; conditions: read-out: Inhibitory activity
T17 construct: purchased Eurofins Pharma Discovery (KinaseProfiler); IC50 values by Reaction Biology Corp

SRC (1-530) = biological target: T18, SRC (1-530) (Homo sapiens, UniProt P12931); assay: Kinase profiling at 10 μM (Eurofins); format: biochemical; conditions: read-out: Inhibitory activity
T18 construct: purchased Eurofins Pharma Discovery (KinaseProfiler); IC50 values by Reaction Biology Corp
T18 sequence (P12931 1-530 limits assumed): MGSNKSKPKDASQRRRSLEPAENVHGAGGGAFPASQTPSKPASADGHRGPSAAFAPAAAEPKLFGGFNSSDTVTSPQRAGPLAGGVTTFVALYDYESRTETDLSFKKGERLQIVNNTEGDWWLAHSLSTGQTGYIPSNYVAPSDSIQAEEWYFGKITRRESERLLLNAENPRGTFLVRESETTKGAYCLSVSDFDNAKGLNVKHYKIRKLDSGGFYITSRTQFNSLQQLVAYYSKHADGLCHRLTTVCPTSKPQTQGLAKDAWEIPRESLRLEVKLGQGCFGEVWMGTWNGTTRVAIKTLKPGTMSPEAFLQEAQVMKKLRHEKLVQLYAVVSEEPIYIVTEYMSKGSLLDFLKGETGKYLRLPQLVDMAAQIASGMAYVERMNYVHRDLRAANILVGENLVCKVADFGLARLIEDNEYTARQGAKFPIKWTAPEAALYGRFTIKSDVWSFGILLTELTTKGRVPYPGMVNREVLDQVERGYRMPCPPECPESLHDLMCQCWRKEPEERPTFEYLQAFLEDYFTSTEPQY

TAK1 = biological target: T19, TAK1 (Homo sapiens, UniProt O43318); assay: Kinase profiling at 10 μM (Eurofins); format: biochemical; conditions: read-out: Inhibitory activity
T19 construct: purchased Eurofins Pharma Discovery (KinaseProfiler); IC50 values by Reaction Biology Corp
T19 sequence (O43318 1-303 limits assumed): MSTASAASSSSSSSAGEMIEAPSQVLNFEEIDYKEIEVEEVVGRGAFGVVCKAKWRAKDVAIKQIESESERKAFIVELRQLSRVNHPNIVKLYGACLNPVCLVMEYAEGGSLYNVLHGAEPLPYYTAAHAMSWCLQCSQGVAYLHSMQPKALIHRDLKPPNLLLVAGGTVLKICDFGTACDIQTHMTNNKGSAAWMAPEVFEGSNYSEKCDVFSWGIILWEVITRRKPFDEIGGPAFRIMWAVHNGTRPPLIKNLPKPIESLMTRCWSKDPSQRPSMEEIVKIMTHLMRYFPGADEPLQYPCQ

HCT116 p53+/+ cells = assay: MTT cell viability assay; format: cell-based, human; conditions: 5 days
Method: (§1) Cell viability was assessed using the MTT colorimetric assay. Cells (1 × 10^3 cells/well) were seeded into 96-well plates and treated with the various concentrations of each compound or combination of two compounds. After five days of treatment, 10 μL MTT (0.5 mg/mL) was added, and further incubated for 3 h. After removal of the supernatant, the resultant pellet was dissolved in DMSO. The absorbance of the resultant formazan was measured at 540 nm using a plate reader (Multiskan EX; ThermoLabsystems, Waltham, MA, USA).
(§2) Supplementary Figure 1. AIU2001 inhibited the proliferation of various cancer cells. (A and B)
(§3) Human AML cells (Molm-13 and MV4-11; A) and human colorectal cancer (CRC) cells
(§4) (HCT116/p53+/+ and HCT116/p53-/-; B) were treated with AIU2001 at the indicated concentrations for
(§5) 5 days and viable cells were evaluated using the CCK-8 assay for AML cells and the MTT assay for
(§6) CRC cells. *p < 0.05, **p < 0.01, ***p < 0.001 versus respective vehicle controls.
(§7) (also on this page, place not known: ca ncer fo r 02468 Cell viability (%) 0 1 Cell viability (%) *** *** ***)

HCT116 p53-/- cells = assay: MTT cell viability assay; format: cell-based, human; conditions: 5 days
Method: as §1, §2, §3, §4, §5, §6, §7

A549 cells = assay: Annexin V/PI flow cytometric analysis of apoptosis; format: cell-based, human; conditions: 10 µM, 48 h
Method: (§8) Annexin V assays were performed according to the manufacturer’s protocol (BD Pharmingen, San Diego, CA, USA). Briefly, 10,000 cells were plated into 60-mm plates and treated with varying concentrations of AIU2001 for 48 h. The cells were harvested and incubated with 4 μL allophycocyanin (APC)-conjugated annexin V (20 μg/mL) and 4 μL PI (50 μg/mL) for 15 min. Fluorescence analyses were performed using flow cytometry (CyFlow Cube 6; Sysmexpartec, Goerlitz, Germany). Cells were classified as early apoptotic (annexin V-positive/PI-negative), late apoptotic/necrotic (annexin V-positive/PI-positive), necrotic/dead (annexin V-negative/PI-positive), and live (annexin V-negative/PI-negative). Flow cytometry data was analyzed using FlowJo software (TreeStar Inc., Ashland, OR, USA).

H1299 cells = assay: Annexin V/PI flow cytometric analysis of apoptosis; format: cell-based, human; conditions: 10 µM, 48 h
Method: as §8

MV4-11 cells = assay: Immunoblot of phospho-STAT5; format: cell-based, human; conditions: 1 h
Method: (§9) Cell lysates were prepared by extracting proteins with TNN buffer (40 mM Tris-Cl pH 8.0, 0.2% NP-40, 120 mM NaCl) or radioimmunoprecipitation assay (RIPA) lysis buffer (Millipore, Billerica MA, USA) supplemented with a protease inhibitor cocktail (Thermo Fisher Scientific, Rockford, IL, USA). Equal amounts of proteins were separated using SDS-PAGE on 8–13% gels, and transferred to nitrocellulose membranes (Bio-Rad, Hercules, CA, USA). The membranes were blocked with 5% skim milk in Tris-buffered saline-Tween 20 (TBST) (150 mM NaCl, 10 mM Tris, 0.2% Tween20), followed by overnight incubation with primary antibodies at 4 °C. The blots were developed using peroxidase-conjugated secondary antibody and the immunoreactive proteins were visualized using enhanced chemiluminescence (ECL) reagents, according to the manufacturer’s recommendations (Amersham, GE Healthcare, Buckingamshire, UK). The protein bands were visualized using a digital imaging system (ImageQuant LAS 4000 mini; GE Healthcare, UK). The protein levels were analyzed using Image J software (National Institutes of Health, Bethesda, MD, USA). Experiments were repeated at least thrice.
(§10) Supplementary Figure 3. AIU2001 inhibited downstream effector STAT5 of FLT3 signaling in
(§11) FLT3(ITD)-AML cells. […]
(§12) AIU2001 for 1h. Cell lysates were prepared and analyzed using immunoblotting for detecting […]

Molm-13 cells = assay: Immunoblot of phospho-STAT5; format: cell-based, human; conditions: 1 h
Method: as §9, §10, §11, §12

IC50 (FLT4): 0.786 µM
IC50 (c-KIT): 0.223 µM
inhibition at 10 µM (CDK2/cyclinA): 39%
inhibition at 10 µM (CHK1): 0%
inhibition at 10 µM (CK2): 10%
inhibition at 10 µM (DDR2): 55%
inhibition at 10 µM (ERBB4): 1%
inhibition at 10 µM (FGFR2): 1%
inhibition at 10 µM (FLT1): 44%
inhibition at 10 µM (FLT3): ≥ 75%
inhibition at 10 µM (HIPK2): 0%
inhibition at 10 µM (IKKα): 7%
inhibition at 10 µM (MAPK2): 19%
inhibition at 10 µM (MEK1): 0%
inhibition at 10 µM (p70S6K): 8%
inhibition at 10 µM (ROCK-I): 0%
inhibition at 10 µM (ROS): 2%
inhibition at 10 µM (SRC (1-530)): 10%
inhibition at 10 µM (TAK1): 15%
SMILES: Brc1ccc(-c2cnc(Nc3cccc4ccccc34)o2)cc1 [AIU2001, 5-(4-bromophenyl)-N-(naphthalen-1-yl) oxazol-2-amine]
Growth inhibition (HCT116 p53+/+ cells): inhibited the growth
Growth inhibition (HCT116 p53-/- cells): inhibited the growth
Increase in early and late apoptotic cells (A549 cells): 4.2 fold
Increase in early and late apoptotic cells (H1299 cells): 6.7 fold
Phosphorylated STAT5 (MV4-11 cells): dose-dependently inhibited phosphorylated STAT5
Phosphorylated STAT5 (Molm-13 cells): dose-dependently inhibited phosphorylated STAT5
